In the NIST ThermoML archive (doi:10.1016/j.tca.2013.06.040):
± gives the expanded uncertainty stated by the source.

Legend:
[1] = Crystal; DTA
[2] = Molar enthalpy of transition or fusion; conditions: Crystal; DSC
[3] = molar heat capacity at constant pressure; conditions: 101.33 kPa, Small sample (50 mg) DSC

O=[N+]([O-])[O-].[Li+] [lithium nitrate]
Conditions	Molar enthalpy of transition or fusion [kcal/mol]	Triple point temperature [K]
[1]	–	525 ± 1
[2]	5.86 ± 0.478	–

[3]
Conditions	molar heat capacity at constant pressure [J/K/mol]
310.7 K, Crystal	63.7 ± 26
315.7 K, Crystal	56.8 ± 23
320.6 K, Crystal	117 ± 47
325.6 K, Crystal	114 ± 46
330.6 K, Crystal	80.3 ± 32
335.6 K, Crystal	72.2 ± 29
340.6 K, Crystal	63.4 ± 25
345.6 K, Crystal	78.2 ± 31
350.6 K, Crystal	88.7 ± 36
355.6 K, Crystal	83.5 ± 33
360.6 K, Crystal	80.8 ± 32
365.6 K, Crystal	81.5 ± 33
370.6 K, Crystal	75.6 ± 30
375.6 K, Crystal	79.1 ± 32
380.6 K, Crystal	77.3 ± 31
385.6 K, Crystal	80.7 ± 32
390.6 K, Crystal	81.1 ± 32
395.6 K, Crystal	83.9 ± 34
400.6 K, Crystal	87.5 ± 35
405.5 K, Crystal	86.4 ± 35
410.5 K, Crystal	81.9 ± 33
415.5 K, Crystal	90.3 ± 36
420.5 K, Crystal	87.1 ± 35
425.5 K, Crystal	86.2 ± 34
430.5 K, Crystal	91.5 ± 37
435.6 K, Crystal	94.4 ± 38
440.6 K, Crystal	95.6 ± 38
445.5 K, Crystal	88.4 ± 35
450.5 K, Crystal	93.6 ± 38
455.4 K, Crystal	90.4 ± 36
460.3 K, Crystal	93.1 ± 37
465.4 K, Crystal	96.3 ± 38
470.5 K, Crystal	97.4 ± 39
475.5 K, Crystal	91.5 ± 37
480.6 K, Crystal	94.5 ± 38
485.5 K, Crystal	95.6 ± 38
490.5 K, Crystal	99.4 ± 40
495.5 K, Crystal	102 ± 41
500.5 K, Crystal	98.8 ± 40
505.5 K, Crystal	103 ± 41
510.5 K, Crystal	110 ± 44
515.5 K, Crystal	125 ± 50
520.5 K, Crystal	127 ± 51
535.5 K, Liquid	114 ± 46
540.5 K, Liquid	122 ± 49
545.5 K, Liquid	122 ± 49
550.5 K, Liquid	125 ± 50
555.5 K, Liquid	117 ± 47
560.5 K, Liquid	121 ± 48
570.5 K, Liquid	122 ± 49
575.5 K, Liquid	123 ± 49
580.5 K, Liquid	116 ± 46
585.5 K, Liquid	121 ± 48
590.5 K, Liquid	119 ± 48
595.5 K, Liquid	122 ± 49
600.5 K, Liquid	119 ± 48
610.5 K, Liquid	113 ± 45
615.5 K, Liquid	120 ± 48
620.5 K, Liquid	110 ± 44
